Where “and” joins values, the source holds several entries; their conditions need not be identical. Equal values may be shown once. Entries after “also recorded” stand apart in the source; their conditions may differ.

In test [1] the test system is pools of well-characterized cancer cell lines. Kind of test: MIX-Seq: scRNA-seq transcriptional response profiling of drug-treated cell line pools. It is filed as cell-based, human. The conditions noted are these: for shared viability-related signature (cell-cycle genes): across compounds, 24 hours post-treatment. On the procedure: Cell line pools were made in sets of 25 cell lines. These 25 cell line pools were chosen based on doubling time and were grown in RPMI in the absence of phenol red and with 10% FBS. Cell lines were then washed with 10 mLs of PBS, and trypsinized with 1 mL trypsin which was then removed. Ten mLs of RPMI media were added to the cells post trypsinization and resuspended. Cells were then counted by a Nexcelom cellometer using 10 uL of cell suspension and 10 ul of Trypan blue. Equal numbers of cells per cell line were mixed together and spun down at 1,250 RPM for 5 minutes. Media was aspirated and the cells were resuspended in Sigma Cell Freezing media and frozen in 1 mL aliquots. This process was repeated for all of the 25 cell line pools. For MIX-Seq experiments involving larger pools, multiple 25 cell line pools were thawed in RPMI with 10% FBS, spun down and resuspended in 5 mLs of RPMI media. Cells were then counted and equal numbers were combined together on the day of plating to form larger pools of up to ˜100 cell lines.
For drug treatment experiments, cell line pools were cultured in RPMI containing 10% fetal bovine serum, in the absence of phenol red and penicillin/streptomycin. Cell line pools were validated as Mycoplasma free prior to initiating the experiment. Cell line pools were plated at 200,000 cells per well in 6 well plates containing 2 mL of RPMI culture media described above. […] Cell pools were plated ˜16-20 hours prior to drug treatment. Cells were treated with the described drugs or vehicle (DMSO) with a 0.2% final media DMSO concentration.
Generally cells were harvested after drug treatment using standard cell culture methods. Briefly, after drug treatment cells that were in suspension (presumably containing dead cells from drug treatment) were collected and reserved for addition to the adherent cell fraction. Adherent cells were washed once with 1×PBS, trypsinized in 1 mL trypsin, incubated for 3-7 minutes at 37 C, and then trypsin inactivated with 1 mL growth media. For Cell Hashing, cells were treated with TrypLE Express (ThermoFisher) instead of trypsin to reduce the amount of cell surface proteins digested that may affect the binding of Cell Hashing antibodies.
After trypsinization, adherent and suspension cells were combined for each treatment, pelleted, and resuspended in Cell Capture Buffer (lx PBS with 0.04% BSA). Cells were counted (including trypan blue non-viable cells) and resuspended at a concentration of 1,000 cells per microliter for standard loading on the Chromium Controller (10× Genomics), or at 1,500 cells per microliter for “super loaded” samples. Up to 40,000 cells were loaded per 10× channel for “super loaded” samples, with expected recovery of up to 20,000 cells per channel. Cell suspensions were captured on a 10× Chromium controller using Single Cell 3′ reagent chemistries (either version 2 or and version 3 reagents) FIG. 26.
Sequencing data were processed using 10× Cell Ranger software, run using the Cumulus cloud-based analysis framework (Li et al. 2019). Initial experiments were done with 10× Single Cell 3′ v2 chemistry, and were processed using version 2 of the Cell Ranger software. In later experiments v3 chemistry and the corresponding version 3 of Cell Ranger were used. Reads were aligned to the hg19 reference genome.
To estimate the average transcriptional response of each cell line to a perturbation, the data were first ‘sum-collapsed’—summing read counts across cells for each cell line and treatment condition—to produce a bulk RNA-seq style read counts profile for each sample (Crowell et al. 2019; Lun & Marioni 2017). […]

Test [2] deals with pools of cancer cell lines. Kind of test: Single-cell heterogeneity analysis of drug responses (clustering of scRNA-seq profiles). It counts as cell-based, human. The conditions noted are these: of the 24 cell lines in the pool, 24 hours after treatment. From the text: Specifically, the edgeR quasi-likelihood approach was used (Lun et al. 2016), following the pipeline in Soneson et al. 2018, with the cell detection rate (the fraction of genes with non-zero reads detected) included as a covariate.
To identify subpopulations of bortezomib treated cells (FIGS. 4D-4F), Seurat's default methods were used to normalize the data, detect variable genes, and compute PCs (using 5000 most variable genes, and 50 PCs). Seurat's default clustering methods were then used to cluster cells for each cell line (using the 20 nearest neighbors, and a clustering resolution parameter of 0.25).
To identify sub-populations of cells from a given cell line in a consistent fashion across baseline and treatment conditions (for analysis and presentation in FIG. 19), the following procedure was employed. After restricting to cells from the target cell line, the scTransform method (Hafemeiester et al. 2019) was used to normalize the data, identify 5,000 variable genes, and regress out experimental condition as a covariate to align clusters across conditions. Seurat's default clustering methods (using the top 10 PCs, 20 nearest neighbors, and a clustering resolution parameter of 0.25) were then used to identify clusters jointly across treated and control cells.

A further test deals with cancer cell lines. The conditions noted are these: GDSC and PRISM drug sensitivity data; cited from earlier work.
For test [3], the system named is pools of cancer cell lines. Kind of test: Cell cycle phase analysis inferred from single-cell transcriptional profiles (MIX-Seq). It is filed as cell-based, human. Conditions: for change in proportion of cells in G2/M phase / change in proportion of cells in S phase: 24 hours post-treatment, average weighted by drug sensitivity. On the procedure: Cell cycle phase classification was performed using the Seurat function CellCycleScoring, using the S- and G2M-phase gene lists reported in Tirosh et al. 2016. The change in proportion of cells in each phase between treatment and control conditions for each cell line, along with associated confidence intervals, were estimated using the prop.test R function. For FIG. 4C, aggregate scores were computed representing how each compound altered the cell cycle composition by computing weighted averages across cell lines of the change in proportion of cells in each phase, where the weights were determined by the cell lines' measured drug sensitivity (1 minus AUC, bounded between 0 and 1).
For example, characterizing the cell cycle effects of a perturbation yields important information about its MoA. Such measurements have heretofore typically been made using a FACS-based assay, which must be performed on each sample independently and cannot be used to relate cell cycle effects post hoc to other phenotypes without advanced planning. Using MIX-Seq, such measurements can be made in parallel across a pool of cell lines, inferring the cell cycle phase of each cell from its transcriptional profile (Tirosh et al. 2016).
Next, the effects of each compound on the cell cycle were systematically assessed (see Example 1 above). […] Two notable exceptions were the DNA-damaging agent gemcitabine and the CHEK1/2 inhibitor prexasertib.

Where [4] appears, read: 24 hours post-treatment (FIGS. 9B, 9C).

`CO[C@H]1C[C@@H]2CC[C@@H](C)[C@@](O)(O2)C(=O)C(=O)N2CCCC[C@H]2C(=O)O[C@H]([C@H](C)C[C@@H]2CC[C@@H](OCCO)[C@H](OC)C2)CC(=O)[C@H](C)/C=C(\C)[C@@H](O)[C@@H](OC)C(=O)[C@H](C)C[C@H](C)/C=C/C=C/C=C/1C` [everolimus]: in test [1] (setting [4]), the “gene sets enriched in across-cell-line average transcriptional response” value (from here on “gene sets enriched”) is “mTOR signaling was the top down-regulated gene set”.
As for `CC(C)C[C@H](NC(=O)[C@H](Cc1ccccc1)NC(=O)c1cnccn1)B(O)O` [bortezomib], the “gene sets enriched” value in test [1] (6 hours post-treatment (FIG. 9A)) was “strong up-regulation of protein folding and heat-shock response pathways”. For the same molecule, in test [1], the “shared viability-related signature (cell-cycle genes)” value (“shared viability-related signature” for short) is recorded as “shared signature was also apparent”. In test [2], the “number of cell lines showing a bimodal response” value was 10 and 9.
As for `CC1(C)CCC(c2ccc(Cl)cc2)=C(CN2CCN(c3ccc(C(=O)NS(=O)(=O)c4ccc(N[C@H](CCN5CCOCC5)CSc5ccccc5)c(S(=O)(=O)C(F)(F)F)c4)cc3)CC2)C1` [navitoclax], the “robust transcriptional response signature” value in test [1] (6 and/or 24 hours post-treatment) is reported as “did not produce strong and/or selective transcriptional responses; also recorded: did not produce robust transcriptional response signatures; also recorded: a robust transcriptional response to navitoclax was not observed”. Besides, the “long-term viability response across cell lines” value with cancer cell lines was “strong selective viability responses”.
For the molecule `Nc1ccn([C@@H]2O[C@H](CO)[C@@H](O)C2(F)F)c(=O)n1` [gemcitabine], the “gene sets enriched” value in test [1] (setting [4]) is listed as “altered expression of apoptosis-related genes”. In addition, the “shared viability-related signature” value in test [1] is given as “shared signature was also apparent”. For the same molecule, in test [3], the “change in proportion of cells in G2/M phase” value was “decreased the proportion of cells in G2/M” and the “change in proportion of cells in S phase” value was “increase in S-phase cells”.
Take `CC(C)(C)c1nc(-c2cccc(NS(=O)(=O)c3c(F)cccc3F)c2F)c(-c2ccnc(N)n2)s1` [dabrafenib]: the “variability of transcriptional responses among sensitive cell lines” value in test [1] (BRAF-mutant melanoma cell lines, 24 hour post-treatment) is reported as “substantial variation”.
On to `Cc1sc2c(c1C)C(c1ccc(Cl)cc1)=N[C@@H](CC(=O)OC(C)(C)C)c1nnc(C)n1-2` [JQ-1], for which the “shared viability-related signature” value in test [1] is recorded as “shared signature was also apparent”.
Consider `COc1ccc(C2=NC(c3ccc(Cl)cc3)C(c3ccc(Cl)cc3)N2C(=O)N2CCNC(=O)C2)c(OC(C)C)c1` (centres unmarked) [nutlin], for which the “average drug-induced changes in gene expression for each cell line” value in test [1] (TP53 WT cell lines (7) in a pool of 24 cell lines) was “robust response; also recorded: strong gene expression changes”. For the same molecule, in test [1] (among TP53 WT cell lines), the “gene set enrichment analysis of average transcriptional response, down-regulated” value is “down-regulation of cell cycle processes” and the “gene set enrichment analysis of average transcriptional response, up-regulated” value is listed as “clear up-regulation of genes in the TP53 downstream pathway”. In addition, the “average drug-induced changes in gene expression for each cell line” value in test [1] (cell lines harboring TP53 mutations (n=17) in a pool of 24 cell lines) is on record as “only minimal changes; also recorded: weak gene expression changes”. In addition, in test [3] (pool of 24 cell lines, TP53 WT vs TP53 mutant), the “change in proportion of cells in G0/G1” value was “pronounced G0/G1-arrest phenotype selectively among the TP53 WT cell lines; also recorded: elicits G1-arrest selectively among the TP53 WT cell lines”.
With `COc1cccc(OCCCN)c1-c1cc(Nc2cnc(C#N)cn2)n[nH]1` [prexasertib], in test [1], the “shared viability-related signature” value was “shared signature was also apparent”. Further, in test [3], the “change in proportion of cells in G2/M phase” value is “slightly increased the fraction of G2/M cells” and the “change in proportion of cells in S phase” value was “decreased the proportion of S-phase cells”.
